According to PMC4515242, “ESR and X-ray Structure Investigations on the Binding and Mechanism of Inhibition of the Native State of Myeloperoxidase with Low Molecular Weight Fragments” (Applied Magnetic Resonance, 2015):
pIC50: −log10 of the molar value.

Experiments:
[1] = ABTS radical cation decolorization assay to measure the antioxidant capacity; conditions: % inhibition at 20 uM single dose, read at 734 nm after 30 min
Experimental: The assay was modeled after the published procedure. Briefly, ABTS radical cation was prepared by adding 100 μl of 70 mM K2S2O8 to 10 ml ABTS, followed by vortexing and incubating at 37 °C water bath for 2 h. […] Trolox standards are dissolved in water. The reaction is started by adding the ABTS radical cation solution to the MPO inhibitors or Trolox (final concentration 20 μM). The plate is gently shaken for 1 min and then set on a bench top at room temperature for 30 min.

[2] = biological target: T1, native state (Fe3+) of hMPO (Homo sapiens, UniProt P05164); assay: Low temperature ESR binding assay (binding-induced g shift, Rrelative); conditions: for ESR Rrelative: Rrelative = (Rbound - Rnative)/Rnative x 100, inhibitor:MPO 40:1, pH 6, 6 % DMSO, 4-7 K; for ESR Binding: class by Rrelative, inhibitor:MPO 40:1; for Δg: absolute difference between g X and g Y of the bound complex; for g X / g Y: electronic g value of the bound complex, X-band ESR, 5 K
T1 construct: purchased Athens Research and Technology
T1 sequence (P05164 49-745): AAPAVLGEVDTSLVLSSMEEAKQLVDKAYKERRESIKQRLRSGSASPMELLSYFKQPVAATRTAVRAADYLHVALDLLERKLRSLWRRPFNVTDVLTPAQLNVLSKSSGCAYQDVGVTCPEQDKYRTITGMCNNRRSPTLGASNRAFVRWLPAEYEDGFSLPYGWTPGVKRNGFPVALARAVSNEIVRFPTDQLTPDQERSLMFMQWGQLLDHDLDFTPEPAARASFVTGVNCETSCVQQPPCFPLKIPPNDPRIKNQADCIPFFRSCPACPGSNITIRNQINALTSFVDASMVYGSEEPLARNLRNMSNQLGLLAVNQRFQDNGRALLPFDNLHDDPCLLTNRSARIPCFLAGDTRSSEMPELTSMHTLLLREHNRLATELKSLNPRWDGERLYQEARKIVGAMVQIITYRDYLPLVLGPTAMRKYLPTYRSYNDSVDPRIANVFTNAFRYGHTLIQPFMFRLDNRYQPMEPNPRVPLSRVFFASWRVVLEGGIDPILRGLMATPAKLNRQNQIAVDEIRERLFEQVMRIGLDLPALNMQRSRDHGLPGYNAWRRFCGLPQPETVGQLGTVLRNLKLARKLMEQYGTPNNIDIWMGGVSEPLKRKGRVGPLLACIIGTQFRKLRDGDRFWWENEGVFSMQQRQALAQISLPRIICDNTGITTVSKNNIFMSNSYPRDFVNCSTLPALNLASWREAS
Experimental: After 5-min. incubation at room temperature, the entire reaction mixture (0.235 mL) was transferred to the ESR quartz tubes. To avoid the quartz tubes breaking during the rapid freezing cycles, the ESR tubes were initially frozen in a 1:1 Isopentane-Cyclohexane mixture cooled with dry ice powder and then transferred to a liquid nitrogen Dewar to be queued up for ESR measurements. The reaction mixture contained a final concentration of 6 % DMSO. ESR spectra were recorded on a Varian E-12, X-band spectrometer equipped with an Air Products liquid helium cryostat.
The experimental g values correspond to the spin Hamiltonian pertinent to the high-spin ion (S = 5/2).1 H=DSZ2-1/3SS+1+E/DSX2-SY2+βgeS.Be where D and E are the eigen values of the axial and rhombic field components, i.e., the symmetry of the ligand (inhibitors approaching heme in this case). […] When the heme lodges inside the protein, the protein side chain amino acid (histidine) approaches the heme vicinity and either binds (axially) directly to the iron in the heme pocket. […] Thus, the fifth ligand leads to lower (rhombic) symmetries causing the signal at g ~ 6 to split. This non-tetragonal splitting of the heme is quantitated by the relationship,2 E/D=Δg/48 where ∆g represents the absolute difference between the gX and gY components. Alternatively, making use of the fact that E/D maximum value = 1/3, one can simplify the above expression as a percentage of rhombicity, R:3 R=Δg/16×100%. […] To rank-order molecules in terms of their ability to distort the heme pocket/plane environment, we used a ratio of total distortion in the bound complex w.r.t. distortion seen in the native unbound enzyme:4 Rrelative=Rbound-Rnative/Rnative×100.
From the relative rhombicities of the bound and unbound complex, a measure of the strength of binding could be derived. […] For the ease of classification, we have empirically defined those with 5 ≤ Rrelative ≥ 2 as weak binding; 15 ≥ Rrelative ≥ 10 as moderate binding; and 25 ≥ Rrelative ≥ 15 as strong binding (Table 2).

[3] = biological target: T2, Human Myeloperoxidase (Homo sapiens, UniProt P05164); assay: X-ray co-crystal growth by soaking MPO crystals with inhibitor; conditions: crystals soaked with 50 mM inhibitor
T2 construct: purchased Lee Biosciences 426-10
T2 sequence (P05164 49-745): T1 sequence (P05164 49-745)
Experimental: Human Myeloperoxidase and co-crystals of MPO were crystallized and analyzed using methods similar to those described by Davey and Fenna. Briefly, hanging drops of 25 mg/mL MPO, 25 mM sodium acetate pH 5.0, 50 mM NaCl, 50 mM ammonium sulfate, 2 mM calcium chloride, and 3-10 % polyethylene glycol 8000 were set up at 21 °C over reservoir solutions containing 300 mM sodium chloride. Crystals of the space group P21 and having two MPO subunits per asymmetric unit grew with the aid of micro-seeding as very thin plates having a brownish orange tinge. Crystals were soaked with inhibitor compounds at a concentration of 50 mM, in a stabilizing buffer containing 18 % polyethylene glycol 8000, 56 mM ammonium sulfate, 2.2 mM calcium acetate, and 56 mM HEPES pH 7.0. Co-crystals were cryo-protected in a stabilizing buffer containing 22.2 % methylpentanediol prior to flash cooling in liquid nitrogen.
Diffraction data were collected at 100 K using Synchrotron beam line 31ID at the Advanced Photon Source (Argonne National Laboratory) and were integrated using MOSFLM v.6.2.6 [18]. […] Inhibitor binding to the MPO heme group was indicated by appropriately shaped peaks in the Fo–Fc electron density maps. The inhibitor was included in the model, and iterative cycles of manual model building with COOT [20] and restrained refinement with REFMAC v5.2.0019 [21] were used to complete the overall structure. Figures of the crystal structure were generated using PYMOL (www.pymol.org). […] The higher B-factors for the inhibitor molecules could be attributed to inhibitor occupancies of less than 1.0 or to higher degrees of thermal motion associated with the inhibitors. Lower than expected electron density peak heights were also observed for the Cl atom in the inhibitors, which could be due to the radiation damage to this X-Ray sensitive group.

[4] = biological target: T3, hMPO (Homo sapiens, UniProt P05164); assay: Alpha screen assay: inhibition of MPO-initiated nitration of the Apo-A1 peptide ([…]); assay type: biochemical; conditions: MPO 11.8 nM, pH 7.4, 45 min RT
T3 construct: purchased Biodesign A31804H
T3 sequence (P05164 49-745): T1 sequence (P05164 49-745)
Experimental: In a typical experiment, MPO (11.8 nM final concentration) in 20 mM phosphate buffer pH 7.4, 10 % glycerol and 0.005 % gelatin (PB) is added to each well of a multi-well plate containing 20 μl PB ± compound (final concentration of DMSO = 0.9 %). The reaction is started by the addition of 20 μl PB containing 1.5 μM ApoAI peptide substrate, 300 μM diethylenetriaminepentaacetic acid (DTPA), 300 μM sodium nitrite, and 30 μM H2O2. The total reaction volume is 60 μl. The plates are incubated with agitation for 45 min at RT. The reaction is terminated with the addition of 20 μl of a stop solution containing 11.2 nM rabbit anti-nitrotyrosine antibody (final conc. of 2.8 nM), 100 μg/ml streptavidin donor beads, and 100 μg/ml protein A acceptor beads (final concentration of […]), FBS (1.6 % final concentration) in Superblock buffer. The plates are sealed, incubated in the dark for 1 h, and read on a Packard Fusion alpha plate reader.
Through a chloride independent pathway, MPO catalyzes the one electron oxidation of nitrite ions to nitrogen dioxide radicals which then […] protein amino acids like Tyrosine. We used the Apo-A1 peptide substrate ([…]) to follow the nitration of the Tyrosine (indicated by Y in the scheme below): MPO+H2O2→Compound INO2-+Compound I→NO2·+Compound II [drawing 1] Our initial experiments focused on identifying inhibitors that bind to the heme to inhibit the above catalytic action. A representative set of inhibitors is collected in Fig. 1a (strong binders, vide infra) and b (non binders, vide infra).

SMILES | % Anti oxidant potential [1] [%] | ESR Rrelative [2] | ESR Binding [2] | X ray Cocrystal result [3] | pIC50 [4] | Δg [2] | g X [2] | g Y [2]
O=C(NO)c1ccccc1O [LSN13243] | 74.9 | 14.7 | Moderate (15 ≥ Rrelative ≥ 10 as moderate binding) | Yes | 5.23 |  |  | 
S=c1[nH]nc(-c2ccncc2)o1 [LSN19450] | 85.8 | 0 | No | No | 5.40 |  |  | 
O=C(O)c1n[nH]c2ccccc12 [LSN23500] | 0 | 2.4 | Weak (5 ≤ Rrelative ≥ 2 as weak binding) | No | 3.80 | 1.875 | 6.789 | 4.914
Cc1c(N)n[nH]c1-c1ccccc1 [LSN27223] | 32.7 | 3.3 | Weak (5 ≤ Rrelative ≥ 2 as weak binding) | No | 6.16 |  |  | 
O=C1CC(c2ccc(Cl)cc2)=NN1 [LSN34893] | 53.4 | 0.2 | No | No | 6.66 |  |  | 
Cc1cc(C)c2c(O)n[nH]c2n1 [LSN42503] | 82.5 | 0.3 | No | No | 6.77 |  |  | 
Cc1cc(O)nc2[nH]nc(O)c12 [LSN66421] | 10.4 | 0.2 | No | No | 6.39 |  |  | 
NC(=O)c1n[nH]cc1O [LSN104607] | 1.56 | 0 | No | No | 6.18 |  |  | 
O=[N+]([O-])c1c(O)ncnc1O [LSN106019] | 0 | 29.2 | Strong (25 ≥ Rrelative ≥ 15 as strong binding) | Yes | 3.27 | 2.31 | 7.023 | 4.713
Cc1cc(C(F)(F)F)c(C#N)c(=O)[nH]1 [LSN131429] | 9 | -28.6 | Strong (25 ≥ Rrelative ≥ 15 as strong binding) | Yes | 3.86 | 1.344 | 6.559 | 5.215
Oc1nnc(-c2ccccc2)s1 [LSN227931] | 0 | 0.2 | No | No | 3.48 |  |  | 
Oc1n[nH]c2c1CCC2 [LSN386639] | 38.2 | 0.2 | No | No | 6.40 |  |  | 
Sc1nnc(-c2cccnc2)o1 [LSN811183] | 95.9 | 16.5 | Strong (25 ≥ Rrelative ≥ 15 as strong binding) | Yes | 4.14 | 2.115 | 6.924 | 4.809
Fc1ccccc1-c1n[nH]c(=S)o1 [LSN2303506] | 97.7 | 21.7 | Strong (25 ≥ Rrelative ≥ 15 as strong binding) | Yes | 4.55 | 2.1759 | 6.9749 | 4.799
